Data reported in US6906175B2, “Production of adenine nucleotide translocator (ANT), novel ANT ligands and screening assays therefor” (priority 1998, dated 2005).

What was measured:
[1] = biological target: T1, bovine mitochondria (ANT) (Bos taurus, UniProt P02722); test: 125I-compound 24 competition binding (Tube Assay), beef heart mitochondria; settings: for competitive inhibition of 125I-compound 24 binding (in words): FIGS. 11, 13, 16
T1 construct: from tissue; host or cells: bovine heart mitochondria
T1 sequence (P02722 2-298 limits assumed): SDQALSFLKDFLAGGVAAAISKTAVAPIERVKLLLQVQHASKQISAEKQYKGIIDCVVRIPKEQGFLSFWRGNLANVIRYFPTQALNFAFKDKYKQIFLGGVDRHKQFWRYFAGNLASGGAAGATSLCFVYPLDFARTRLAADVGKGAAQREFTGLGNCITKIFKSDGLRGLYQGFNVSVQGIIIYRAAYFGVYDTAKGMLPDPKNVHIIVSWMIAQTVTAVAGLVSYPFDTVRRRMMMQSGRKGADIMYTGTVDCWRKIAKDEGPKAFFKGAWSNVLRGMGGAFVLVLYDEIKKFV
Protocol: Bovine mitochondria were prepared as follows: Essentially all of the fat and cholesterol […] was removed from two bovine hearts which were then cut into 1-inch cubes. The cubes were ground in a meat grinder using the fine setting. Three hundred (300) […] portions of the ground heart were weighed out and, to each was added 400 ml of Isolation Buffer (IB; 250 mM sucrose, 1 mM sodium succinate, 0.2 mM K^+EDTA, 10 mM Tris-base, pH 7.8). (All buffers were filter sterilized, and column buffers were degassed, and, unless otherwise noted, all steps were carried out at 0 to 4° C. on ice or in pre-cooled rotors and centrifuges.) The preparations were mixed in a blender two times for 15 seconds on high setting and, in between and after blends, the pH was adjusted to 7.8 with 2M Tris-base. The homogenate was centrifuged for 20 minutes at 1,200×g, and the supernatant was poured through two layers of cheese cloth and adjusted to pH 7.8 with 2M Tris-base. The supernatant was then centrifuged for 30 minutes at […]. The supernatant was decanted, and the buff-colored outer pellet was dislodged with about 10 ml of IB and discarded. The brown inner pellet (heavy mitochondria) was resuspended in IB (about 10 ml per pellet). The pellets were homogenized in a glass-teflon homogenizer (2 passes at high drill speed). Samples were combined and centrifuged for 30 minutes at 11,000×g. The supernatant was decanted, and the pellets were resuspended in 60 ml of IB per 900 gm of ground heart. This centrifugation step was repeated and the pellets were finally resuspended in IB (60 ml per 900 gm of ground heart). One kilogram of beef heart typically yields about one (1) gram of mitochondria
(§1) The mitochondrial preparations were divided into aliquots (typically, 50μl for T. ni mitochondria or 20 μl for bovine mitochondria) and then either used directly in assays or flash frozen and stored at −80° C. The total protein content in the mitochondrial preparations was determined using the enhanced protocol (30 minutes at 60° C.; see http://www.ruf.rice.edu/˜bioslabs/methods/protein/BCA.html) of the bicinchoninic acid (BCA) assay (available in kit form from Pierce, Rockford, Ill.).
In the “Tube Assay,” mitochondria (from about 1 to 10 μg of total protein) were resuspended in 100 μl of Tris-KCl buffer with 0.1% BSA, pH 7.4. ^125I-labeled compound 24 (Example 11) was added to a final concentration of 0.5 nM. When used, competitors were added at these concentration ranges: unlabeled atractyloside or compound 24 final concentration from 5 nM to 10 μM; unlabeled ADP (a lower affinity competitor) was added at a final concentration of 500 nM to 1 mM.
The reaction mixes were incubated on ice for 60 minutes and then pelleted by centrifugation (approximately 16,000×g) for 11 minutes at 4° C.
Unbound ^125I-compound 24 was removed by aspiration. The pellets were contact-washed with Tris-KCl buffer, pH 7.4, and recentrifuged. The resultant pellets were aspirated and the radioactivity (dpm) in each was determined by gamma counting.

His-tagged huANT3 [2] = biological target: T2, His-tagged huANT3 (Homo sapiens, UniProt P12236); test: 125I-compound 24 competition binding to recombinant His-tagged huANT3 immobilized on Ni beads; parameters: made in house; host or cells: baculovirus-infected Trichoplusia ni cells; mitochondria solubilized and captured on Ni-agarose beads (Qiagen); settings: His-tagged huANT3 on Ni-agarose beads, 1 hour at 4° C.; FIG. 19
T2 sequence (P12236 1-298): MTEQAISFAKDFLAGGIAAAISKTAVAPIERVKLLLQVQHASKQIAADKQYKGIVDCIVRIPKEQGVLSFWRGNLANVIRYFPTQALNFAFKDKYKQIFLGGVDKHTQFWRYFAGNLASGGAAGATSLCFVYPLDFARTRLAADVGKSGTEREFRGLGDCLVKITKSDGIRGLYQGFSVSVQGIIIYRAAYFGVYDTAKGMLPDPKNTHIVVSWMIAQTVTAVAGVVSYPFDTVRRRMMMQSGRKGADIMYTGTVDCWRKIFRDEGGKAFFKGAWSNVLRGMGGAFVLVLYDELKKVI
Protocol: Competitive binding assays were also performed using recombinant His-tagged huANT3 (see Example 3) immobilized on Ni beads (FIG. 19) instead of mitochondria. To prepare the bead-immobilized huANT3, mitochondria from T. ni cells infected with a baculovirus expressing huANT3 (see Example 3) were solubilized with 0.5% O-glucopyranoside in the presence of 0.5 nM ^125I-compound 24 Ni-agarose beads (Qiagen, Hilden, Germany), and various concentrations of ATR or BKA as unlabeled competitors. After 1 hour at 4° C., the beads were washed and radioactivity that remained associated with the beads was counted.

His-tagged huANT3 [3] = biological target: T2, His-tagged huANT3; test: Binding of [32P]ATP to purified His-tagged huANT3 on Ni-agarose magnetic beads; parameters: made in house; host or cells: baculovirus-infected Sf9 cells; settings: for cpm bound by: huANT3-Producing Cells: 2 hr
Protocol: (§2) His-tagged huANT3 protein was purified from baculovirus-infected Sf9 solubilized cell lysates using Ni-agarose magnetic beads; Sf9 cells that had not been infected were used as negative controls. The beads were incubated with [^32P]ATP (1 or 100 μM) for 2 hr. The beads were washed and then counted to determine the amount of bound ATP. […] Binding saturation had essentially been achieved with 1 μM ATP.

[4] = tested on: sham transformed E. coli membranes; test: Saturation binding of [32P]ATP to E. coli membranes, sham transformed (vector only) cells; settings: 25 μg membrane protein, 2 hr room temperature
Protocol: (§3) Following arabinose induction, transformed or sham transformed (vector only) E coli were collected by centrifugation at 2000 g for 10 min. The bacterial pellets were resuspended in MSB, to which lysozyme (100 μg/ml) was added. After 20 min at room temperature, the lysates were subjected to one freeze-thaw cycle followed by sonication as described above. The resultant membrane preparation was used for binding assays.
(§4) […] The membranes with bound ATP were sedimented by centrifugation at 5000 g for 5 min, and washed once with binding buffer. Membrane pellets were then mixed with 5 ml scintillation cocktail and counted.

[5] = biological target: T3, GST-huANT3 recombinantly produced in E. coli (membranes) (Homo sapiens, UniProt P12236); test: Saturation binding of [32P]ATP to E. coli membranes, huANT3-producing cells; settings: for cpm bound by: huANT3-Producing Cells: 25 μg membrane protein, 2 hr room temperature
T3 construct: Gly-Ser-Pro-Gly-Ile-Leu-Met, where “Met” indicates the amino acid encoded by the translation initiation codon of huANT3; made in house; host or cells: E. coli (crude membrane preparation)
T3 sequence (P12236 1-298): T2 sequence (P12236 1-298)
Protocol: as §3, §4

GST-huANT3 = biological target: T4, GST-huANT3 (Homo sapiens, UniProt P12236); test: ATP binding to agarose-glutathione beads incubated with solubilized bacterial lysate
T4 construct: Gly-Ser-Pro-Gly-Ile-Leu-Met, where “Met” indicates the amino acid encoded by the translation initiation codon of huANT3; made in house; host or cells: E. coli (solubilized lysate, captured on agarose-glutathione beads)
T4 sequence (P12236 1-298): T2 sequence (P12236 1-298)
Protocol: Agarose-glutathione beads were incubated with solubilized (using Dnase, Rnase and 0.1% Triton X-100, see Example 1, section D) bacterial lysate (see Example 2), and substituted for the E. coli membranes in binding assays. Best results (i.e., more specific binding) were seen when the beads were preincubated with bovine serum albumin (BSA, 0.1%) Specific ATP binding (1,070 cpm) was also observed in this experiment (compare to nonspecific binding of 279 cpm in the presence of 10 mM non-radiolabeled ATP).

[6] = Binding of [32P]ATP to Ni-agarose bead material from control (uninfected) Sf9 cells; settings: 2 hr
Protocol: as §2

Sf9/huANT3 mitochondria = biological target: T5, Sf9/huANT3 mitochondria (Homo sapiens, UniProt P12236); test: Homologous competition of [32P]ATP binding to Sf9/huANT3 mitochondria; settings: 25 μg mitochondrial protein per assay; FIG. 7
T5 construct: expressed in transfected cells; host or cells: Spodoptera frugiperda Sf9 cells infected with recombinant baculovirus; isolated mitochondria
T5 sequence (P12236 1-298): T2 sequence (P12236 1-298)
Protocol: To estimate maximal binding and the extent of overexpression of the huANT3, 25 μg of membrane protein was incubated with varying amounts of [^32P]ATP (1-500 μM) in binding buffer (120 mM KCl, 10 mM Tris, 1 mM EDTA, pH 7.4) for 2 hr at room temperature. The membranes with bound ATP were sedimented by centrifugation at 5000 g for 5 min, and washed once with binding buffer. Membrane pellets were then mixed with 5 ml scintillation cocktail and counted.
Sf9 cells expressing huANT3 were grown in spinner flasks. The cells were harvested by centrifugation at 2,000 g for 5 min. The cell pellet was resuspended in MSB and subjected to 3 freeze-thaw cycles. Cell membranes and debris were removed by centrifugation at 600 g for 5 min; mitochondria were collected by centrifuging the supernatant at 20,000 g for 15 min. The mitochondrial pellets were suspended in MSB, and used for binding assays as described above. Homologous competition of [^32P]ATP binding was performed using 25 μg mitochondrial protein per assay.

[7] = biological target: T6, T. ni/huANT3 mitochondria (Homo sapiens, UniProt P12236); test: 125I-compound 24 competition binding (Tube Assay), mitochondria from T. ni cells expressing huANT3; settings: mitochondria from T. ni cells expressing huANT3; FIGS. 12, 14, 15
T6 construct: expressed in transfected cells; host or cells: Trichoplusia ni cells infected with recombinant baculovirus (cells prepared by PharMingen); isolated mitochondria
T6 sequence (P12236 1-298): T2 sequence (P12236 1-298)
Protocol: Atractyloside analogs (Example 6; Table 1; see also Examples 7-9) were also used in pseudo-homologous competition binding assays using T. ni/huANT3 mitochondria or bovine mitochondria. Mitochondria from noninfected T. ni cells, or T. ni cells infected with a baculovirus expressing huANT3 (see Example 3) were prepared as follows: […] cells were prepared by a subcontractor (PharMingen, San Diego, Calif.) as portions of about 250 mg of cells per tube. Each portion was suspended in 1 ml of MSB with protease inhibitors (leupeptin, final concentration 10 ug/ml; pepstatin, final concentration 10 ug/ml; aprotinin, final concentration, 2 ug/ml; phenylmethylsulfonyl fluoride, [PMSF], final concentration, 100 μM; all from Sigma Chemical Co., St. Louis, Mo.). The resuspended cell suspensions were frozen and thawed twice, then homogenized using a rotating teflon-coated probe and a close-fitting glass container (10 passes). The cellular homogenate was centrifuged (3,700 rpm, approximately 1,500×g) at 4° C. for 5 minutes; this supernatant from the first spin was saved. The pellet was washed with about 500 μl of MSB with protease inhibitors, centrifuged (3,800 rpm, approximately 1,600×g) at 4° C. for 5 minutes, and supernatant from this spin was combined with the supernatant from the first spin. […]
as §1, with “Ill.). […]” for “Ill.).”
Unbound ^125I-compound 24 was removed by aspiration. […] The resultant pellets were aspirated and the radioactivity (dpm) in each was determined by gamma counting.

CO[C@H](C/C=C\C=C\CC/C=C/C[C@H](C)/C=C/C(=C\C(=O)O)CC(=O)O)/C(C)=C\C=C(/C)C(=O)O [BKA, bongkrekic acid]
competitive inhibition of 125I-compound 24 binding (in words) [1]: effectively displaced labeled compound 24, albeit with a slightly lower affinity than unlabeled compound 24 | competitive inhibition of 125I-compound 24 binding (in words) (His-tagged huANT3 [2]): effectively compete with compound 24

CC(C)CC(=O)OC1C(OC2CC(C(=O)O)C3CCC45CC(CCC4C3(C)C2)C(C)C5O)OC(CO)C(OS(=O)(=O)O)C1OS(=O)(=O)O (centres unmarked) [compound 5, Dihydroatractyloside]
IC50 ([1]; 0.5 nM 125I-compound 24, FIG. 18, read-out: IC50, competitive inhibition of 125I-compound 24 binding): ~3.3 µM

Nc1ncnc2c1ncn2[C@@H]1O[C@H](COP(=O)(O)OP(=O)(O)OP(=O)(O)O)[C@@H](O)[C@H]1O [ATP, adenosine triphosphate]
ATP concentration at which binding saturation had essentially been achieved (His-tagged huANT3 [3]): 1 µM | cpm bound by: huANT3-Producing Cells (His-tagged huANT3 [3]; [ATP] 1.0 uM): 149 cpm | cpm bound by: huANT3-Producing Cells (His-tagged huANT3 [3]; [ATP] 100 uM): 160 cpm | cpm bound by: Sham Transformed Cells ([4]; [ATP] 0.1 uM): 109 cpm | cpm bound by: Sham Transformed Cells ([4]; [ATP] 0.5 uM): 95 cpm | cpm bound by: Sham Transformed Cells ([4]; [ATP] 1.0 uM): 147 cpm | cpm bound by: Sham Transformed Cells ([4]; [ATP] 5.0 uM): 123 cpm | cpm bound by: Sham Transformed Cells ([4]; [ATP] 10 uM): 214 cpm | cpm bound by: Sham Transformed Cells ([4]; [ATP] 50 uM): 549 cpm | cpm bound by: Sham Transformed Cells ([4]; [ATP] 100 uM): 718 cpm | cpm bound by: Sham Transformed Cells ([4]; [ATP] 500 uM): 2,140 cpm | cpm bound by: huANT3-Producing Cells ([5]; [ATP] 0.1 uM): 191 cpm | cpm bound by: huANT3-Producing Cells ([5]; [ATP] 0.5 uM): 49 cpm | cpm bound by: huANT3-Producing Cells ([5]; [ATP] 1.0 uM): 325 cpm | cpm bound by: huANT3-Producing Cells ([5]; [ATP] 10 uM): 263 cpm | cpm bound by: huANT3-Producing Cells ([5]; [ATP] 50 uM): 2,727 cpm | cpm bound by: huANT3-Producing Cells ([5]; [ATP] 100 uM): 5,772 cpm | cpm bound by: huANT3-Producing Cells ([5]; [ATP] 500 uM): 9,715 cpm | Kd ([5]; from saturation binding data of Table 2, read-out: affinity of the ATP binding): ~6 µM | Specific ATP binding (GST-huANT3; beads preincubated with BSA 0.1%): 1,070 cpm | nonspecific binding (GST-huANT3; in the presence of 10 mM non-radiolabeled ATP): 279 cpm | cpm bound by: Control (Uninfected) Cells ([6]; [ATP] 1.0 uM): 43 cpm | cpm bound by: Control (Uninfected) Cells ([6]; [ATP] 100 uM): 30 cpm | Kd (Sf9/huANT3 mitochondria): 13 µM

Nc1ncnc2c1ncn2[C@@H]1O[C@H](COP(=O)(O)OP(=O)(O)O)[C@@H](O)[C@H]1O [ADP, adenosine diphosphate]
competitive inhibition of 125I-compound 24 binding (in words) [1]: low affinity | competitive inhibition of 125I-compound 24 binding (in words) [7]: low affinity
